From patent US20110086759A1, “CHEMICAL COMPOUNDS” (SYNGENTA CROP PROTECTION, INC., priority 2007, published 2011) come the findings set out here.

Common to all, as to assay type: in vivo
Assay [1] deals with Alopecurus myosuroides (ALOMY). In words: Pre-emergence biological efficacy, glasshouse pot test. Conditions: 312 h, pre-emergence, 1,000 g/ha, evaluated after 13 days (100=total damage; 0=no damage), read-out: Percentage damage ALOMY. The method in brief:
(§1)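 Damage was rated on a 0–100 scale 13 days after treatment, with plants kept at 24/16° C, 14 h light and 65% humidity. The pre-emergence spray, at 1000 or 250 g/ha in acetone/water 50:50 with 0.5% Tween 20, was applied one day after sowing.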

For assay [2], the system named is Echinochloa crus-galli (ECHCG). The assay is described as above. The conditions noted are these: 312 h, pre-emergence, 1,000 g/ha, evaluated after 13 days (100=total damage; 0=no damage), read-out: Percentage damage ECHCG. In short, it runs like this: as §1
The subject of assay [3] is Amaranthus retoflexus (AMARE). Described as above. Conditions: Amaranthus retroflexus, 312 h; pre-emergence, 1,000 g/ha, evaluated after 13 days (100=total damage; 0=no damage); read-out: Percentage damage AMARE. The method in brief:
as §1

Assay [4] concerns Solanum nigrum (SOLNI). The assay is described as above. The conditions noted are these: 312 h, pre-emergence, 1,000 g/ha, evaluated after 13 days (100=total damage; 0=no damage), read-out: Percentage damage SOLNI. The method in brief: as §1
Assay [5] concerns Setaria faberi (SETFA). Described as above. Conditions: 312 h, pre-emergence, 1,000 g/ha, evaluated after 13 days (100=total damage; 0=no damage), read-out: Percentage damage SETFA. In short, it runs like this: as §1
The subject of assay [6] is Ipomea hederaceae (IPOHE). Described as above. Conditions: Ipomoea hederacea, 312 h; pre-emergence, 1,000 g/ha, evaluated after 13 days (100=total damage; 0=no damage); read-out: Percentage damage IPOHE. In short, it runs like this: as §1
The subject of assay [7] is Alopecurus myosuroides (ALOMY). In words: Post-emergence biological efficacy, glasshouse pot test. The conditions noted are these: 312 h, post-emergence, 1,000 g/ha, evaluated after 13 days (100=total damage; 0=no damage), read-out: Percentage damage caused to weed species, ALOMY. The method in brief: (§2)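 Scored 13 days after spraying on a 0 (no damage) to 100 (total damage) scale. Treatment was a post-emergence spray at 1000 or 250 g/ha, from acetone/water 50:50 plus 0.5% Tween 20, onto 8-day-old plants in soil pots. Growth at 24/16° C, 14 h photoperiod, 65% humidity, watered twice daily.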

Assay [8] relates to Echinochloa crus-galli (ECHCG). Described as above. The conditions noted are these: 312 h, post-emergence, 1,000 g/ha, evaluated after 13 days (100=total damage; 0=no damage), read-out: Percentage damage caused to weed species, ECHCG. The method in brief:
as §2

Assay [9] deals with Amaranthus retoflexus (AMARE). The description is as above. Conditions: Amaranthus retroflexus, 312 h; post-emergence, 1,000 g/ha, evaluated after 13 days (100=total damage; 0=no damage); read-out: Percentage damage caused to weed species, AMARE. The method in brief:
as §2

Assay [10] concerns Solanum nigrum (SOLNI). Described as above. The conditions noted are these: 312 h, post-emergence, 1,000 g/ha, evaluated after 13 days (100=total damage; 0=no damage), read-out: Percentage damage caused to weed species, SOLNI. The method in brief: as §2
Assay [11] has as its system Setaria faberi (SETFA). Described as above. The conditions noted are these: 312 h, post-emergence, 1,000 g/ha, evaluated after 13 days (100=total damage; 0=no damage), read-out: Percentage damage caused to weed species, SETFA. In short, it runs like this:
as §2

Assay [12] relates to Ipomea hederaceae (IPOHE). The description is as above. The conditions noted are these: Ipomoea hederacea, 312 h; post-emergence, 1,000 g/ha, evaluated after 13 days (100=total damage; 0=no damage); read-out: Percentage damage caused to weed species, IPOHE. In short, it runs like this: as §2

Take `COC(=O)c1nc(C2CC2)nc(NC2(/C=C/c3cccc(Cl)c3)CC2)c1Cl` [Compound 4-30, 5-Chloro-4-{1-[2-(3-chlorophenyl)-etenyl]-cyclopropylamino}-2-cyclopropyl-6-methoxycarbonyl-pyrimidine]: the pest or weed control at 1000 g/ha in assay [1] came out at 0%; in [2] it was 0%; in [3], 20%; in assay [4], 0%; in assay [5], 10%; in assay [6], 40%. Moreover, the pest or weed control at 1000 g/ha in assay [7] came to 10%; in [8] it was 30%; in assay [9] it was 100%; in [10] it was 70%; in assay [11] it was 60%; in [12], 100%.
As to `COC(=O)c1nc(C2CC2)nc(NCc2ccc(C(F)(F)F)cc2)c1Cl` [Compound 4-77, 5-Chloro-2-cyclopropyl-6-methoxycarbonyl-4-(4-trifluoromethyl-phenylmethyl-amino)pyrimidine], the pest or weed control at 1000 g/ha in assay [1] amounted to 0%; in assay [2], 30%; in assay [3] it was 50%; in assay [4], 40%; in [5], 0%; in assay [6], 40%. Also, the pest or weed control at 1000 g/ha came out at 20% in assay [7]; 90% in assay [8]; 100% in assay [9]; 100% in assay [10]; 90% in [11]; 100% in assay [12].
